Source: article PMC11527646, “Pharmacological blockade of the mast cell MRGPRX2 receptor supports investigation of its relevance in skin disorders” (Frontiers in Immunology, 2024)
“Also recorded” adds a separate entry of the source.

Columns and labels:
[1] = test system: human MRGPRX2 knock-in mice; experiment: Cpd 48/80-induced itch (scratching) behavioral model; assay type: in vivo, mouse; details: 3 mg/kg PO, Cpd 48/80 intradermal 3 h post-dose, scratching over 30 min
Source text: The generation and initial characterization of human MRGPRX2 knock-in (KI) mice has been previously reported ([15]). All experimental protocols were approved by the Animal Care and Use Committee at the Johns Hopkins University School of Medicine and studies conducted according to GSK’s Policy on the Care, Welfare and Treatment of Animals. All mice used for this study were 2- to 4-month old males and females (20–30 g) and randomized on body weight and sex using three groups of 18 animals per group.
On the day of the experiment, animals were allowed to acclimatize to the test chamber for 10 min prior to injection. Mice received a single PO dose of Compound B (or vehicle) as a suspension in 1% methylcellulose at a dose level of 3 mg/kg (dose volume 10 mL/kg). Scratching behavior was monitored over 30 min following a single intra-dermal injection of 10 μL of Cpd 48/80 (10 μg/mL) or vehicle (saline) at 3 h post-dose of the antagonist. A bout of scratching was defined as a hindpaw directed continuous scratching movement at the injection site. The scratching behavior scorer was blinded to treatment. […]
Figure 6 Oral treatment with the potent and selective MRGPRX2 antagonist, Compound B (3 mg/kg), blocks Cpd 48/80–induced itch response using human MRGPRX2 knock-in mice. […] Average ± SD blood-free concentration of antagonist measured at end of “itch” observation period was 19 ± 16 nM Compound B.

D2 receptor (DRD2) = target: T1, D2 receptor (DRD2) (Homo sapiens, UniProt P14416); experiment: GPCR selectivity cellular assay; assay type: cell-based
T1 construct: expressed in transfected cells
Protocol: (§1) tagonists, with little activity detected on other GPCRs. Antagonist and/or agonist activities of the two compounds were determined in cellular assays for 20 human G-protein coupled receptors (GPCR) beside MRGPRX2. Recombinant over-expression systems in mammalian cells were used for all assays listed in this table. […]
(§2) reported as ‘>’ the highest compound concentration allowed in that assay.
(§3) GPCR Target Name Gene symbol Mode of Activity Compound-A Compound-B […]
(§4) Agonist Activity (EC50 ) or Antagonist Activity (IC50 ), nM […]

H3 receptor (HRH3) = target: T2, H3 receptor (HRH3) (Homo sapiens, UniProt Q9Y5N1); experiment: GPCR selectivity cellular assay; assay type: cell-based; details: Antagonism; read-out: Antagonist Activity (IC50)
T2 construct: expressed in transfected cells
Protocol: as §1, §2, §3, §4

[2] = target: T3, a2C-Adrenoreceptor (ADRA2C) (Homo sapiens, UniProt P18825); experiment: GPCR selectivity cellular assay; assay type: cell-based; details: Agonism; read-out: Agonist Activity (EC50)
T3 construct: expressed in transfected cells
Protocol: as §1, §2, §3, §4

[3] = target: T4, ß2-Adrenoreceptor (ADRB2) (Homo sapiens, UniProt P07550); experiment: GPCR selectivity cellular assay; assay type: cell-based
T4 construct: expressed in transfected cells
Protocol: as §1, §2, §3, §4

µ-Receptor (OPRM1) = µ-Receptor (OPRM1) (Homo sapiens, UniProt P35372); experiment: GPCR selectivity cellular assay; assay type: cell-based; details: Agonism; read-out: Agonist Activity (EC50)
Protocol: as §1, §2, §3, §4

[4] = Agonism, read-out: Agonist Activity (EC50)
[5] = Antagonism, read-out: Antagonist Activity (IC50)

T1 sequence (P14416 whole entry): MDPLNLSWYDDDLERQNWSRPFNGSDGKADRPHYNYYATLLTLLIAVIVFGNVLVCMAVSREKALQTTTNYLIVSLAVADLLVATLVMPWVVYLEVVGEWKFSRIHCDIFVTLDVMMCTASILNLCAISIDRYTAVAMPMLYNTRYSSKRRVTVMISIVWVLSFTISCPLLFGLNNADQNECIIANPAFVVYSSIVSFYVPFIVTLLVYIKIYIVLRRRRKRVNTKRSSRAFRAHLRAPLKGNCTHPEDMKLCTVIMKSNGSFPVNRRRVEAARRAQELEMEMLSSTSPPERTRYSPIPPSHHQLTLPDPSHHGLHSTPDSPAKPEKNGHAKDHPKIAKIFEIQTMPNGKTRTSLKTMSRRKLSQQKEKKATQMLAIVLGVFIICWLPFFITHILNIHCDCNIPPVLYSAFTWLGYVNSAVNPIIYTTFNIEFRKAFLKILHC
T4 sequence (P07550 whole entry): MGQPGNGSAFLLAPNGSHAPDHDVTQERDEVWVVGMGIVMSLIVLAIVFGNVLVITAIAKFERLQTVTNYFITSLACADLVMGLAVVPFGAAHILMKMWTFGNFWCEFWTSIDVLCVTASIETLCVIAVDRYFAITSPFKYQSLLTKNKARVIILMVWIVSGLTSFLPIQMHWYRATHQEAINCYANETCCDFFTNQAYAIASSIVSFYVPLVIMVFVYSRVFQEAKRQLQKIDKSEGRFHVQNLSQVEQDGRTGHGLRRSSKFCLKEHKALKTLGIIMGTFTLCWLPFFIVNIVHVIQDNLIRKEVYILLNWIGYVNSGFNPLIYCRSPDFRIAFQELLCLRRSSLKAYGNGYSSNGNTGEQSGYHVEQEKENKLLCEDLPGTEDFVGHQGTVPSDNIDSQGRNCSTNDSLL
T2 sequence (Q9Y5N1 whole entry): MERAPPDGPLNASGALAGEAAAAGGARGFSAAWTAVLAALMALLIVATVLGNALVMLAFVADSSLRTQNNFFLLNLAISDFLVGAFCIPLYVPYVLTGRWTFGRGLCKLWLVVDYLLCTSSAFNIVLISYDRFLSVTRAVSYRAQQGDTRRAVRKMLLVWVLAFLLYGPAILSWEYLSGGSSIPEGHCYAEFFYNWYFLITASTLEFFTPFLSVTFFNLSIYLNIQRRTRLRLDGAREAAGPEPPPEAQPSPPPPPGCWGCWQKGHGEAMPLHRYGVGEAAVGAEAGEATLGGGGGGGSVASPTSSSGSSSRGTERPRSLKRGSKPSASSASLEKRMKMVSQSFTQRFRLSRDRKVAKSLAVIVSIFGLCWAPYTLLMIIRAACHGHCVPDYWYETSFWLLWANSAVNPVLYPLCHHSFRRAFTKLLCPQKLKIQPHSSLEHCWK
µ-Receptor (OPRM1), sequence (P35372 whole entry): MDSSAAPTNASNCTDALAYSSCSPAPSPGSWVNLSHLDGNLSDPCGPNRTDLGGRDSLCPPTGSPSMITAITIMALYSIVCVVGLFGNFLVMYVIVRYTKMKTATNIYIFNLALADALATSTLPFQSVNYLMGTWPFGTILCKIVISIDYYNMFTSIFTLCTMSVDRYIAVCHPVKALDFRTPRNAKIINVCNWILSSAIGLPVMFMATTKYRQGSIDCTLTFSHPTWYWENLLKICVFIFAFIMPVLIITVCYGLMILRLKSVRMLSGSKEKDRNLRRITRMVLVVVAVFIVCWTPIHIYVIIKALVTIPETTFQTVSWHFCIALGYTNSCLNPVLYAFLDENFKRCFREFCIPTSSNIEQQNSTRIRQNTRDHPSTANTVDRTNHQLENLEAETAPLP
T3 sequence (P18825 whole entry): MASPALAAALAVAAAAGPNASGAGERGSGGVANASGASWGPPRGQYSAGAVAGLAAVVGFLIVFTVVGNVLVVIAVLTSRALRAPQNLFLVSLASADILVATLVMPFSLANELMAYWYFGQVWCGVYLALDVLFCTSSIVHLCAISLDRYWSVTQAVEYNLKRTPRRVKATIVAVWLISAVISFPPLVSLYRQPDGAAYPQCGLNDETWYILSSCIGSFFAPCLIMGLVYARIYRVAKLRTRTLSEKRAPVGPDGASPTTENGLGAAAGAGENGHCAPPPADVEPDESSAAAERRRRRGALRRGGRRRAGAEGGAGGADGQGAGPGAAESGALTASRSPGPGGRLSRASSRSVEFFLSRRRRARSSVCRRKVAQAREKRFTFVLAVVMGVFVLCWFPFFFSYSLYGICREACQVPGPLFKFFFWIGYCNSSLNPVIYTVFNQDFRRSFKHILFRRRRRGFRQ

In the case of `C[C@@H](C(=O)Nc1cnc(Oc2ccc(F)cc2F)cn1)N1CCC(F)(F)[C@@H](c2cc[n+]([O-])cc2)C1` [Compound B], the “Effect on Cpd 48/80-induced itch response” value [1] is reported as “significant blockade; also recorded: completely block”, the EC50 (D2 receptor (DRD2); [4]) is reported as over 100 µM and the IC50 (D2 receptor (DRD2); [5]) is reported as over 100 µM. It also gave an IC50 (H3 receptor (HRH3)) of over 50 µM, an EC50 [2] of over 100 µM and an EC50 [3, 4] of over 100 µM. It also gave an IC50 [3, 5] of over 100 µM and an EC50 (µ-Receptor (OPRM1)) of over 100 µM.
